Test results published in patent US20120225947A1, “RETINAL NEUROPROTECTION BY ION CHANNEL BLOCKERS REGULATED BY THE SUR SUBUNIT” (ASSISTANCE PUBLIQUE - HOPITAUX DE PARIS, priority 2009, published 2012).
Where two headings read alike, the source gives them in different places.

What was measured:
retinal cells [1] = assay: NMDA-induced retinal degeneration in the rat, different routes of administration of glibenclamide (Example 2), TUNEL apoptotic cell count; type: in vivo; conditions: for apoptotic cell count in retinas exposed to NMDA-induced degeneration: 18 hours, vs NMDA+DMSO, FIG. 6; for NMDA-induced retinal cell degeneration (apoptotic cells per field): intravitreal NMDA the same day
Text: (§1) To induce retinal neurodegeneration, the inventors injected N-methyl-D-aspartate (NMDA) into the vitreous body of rats, a recognized model of retinal excitotoxicity in which NMDA, a synthetic glutamate analog, promotes cell death (Crisanti et al., 2006). Present in excess amounts, NMDA hyperactivates neuronal excitatory receptors (NMDA receptors) which become permeable to calcium. Injection of NMDA results in an increase in intracellular calcium levels. Intracellular calcium activates enzymes (phospholipase C, endonucleases, proteases) which degrade cell structures and lead to apoptosis.
Eight-week-old male Wistar rats weighing 320-350 g were used. Rats were maintained in standard animal housing with a 12 hr day/12 hr night cycle at a temperature of 21° C.+1° C. and 55±5% humidity.
Retinal sections were permeabilized by incubation in 0.3% Triton ×100 for 20 minutes at room temperature and then incubated for 1 hour at 37° C. with 50 μL of TUNEL reaction mixture per slide (mixture obtained with 40 μL TUNEL enzyme and 360 μL TUNEL label, solution containing FITC-conjugated nucleotides).
(§2) The amount of cell death by apoptosis and the type of cells concerned were evaluated by the number and intraretinal location of TUNEL-positive nuclei. For each eye, four complete retinal sections taken from the same eye sectors were used for apoptotic cell counts. The total number of apoptotic cells per retina was calculated with reference to the number of fields counted (therefore to retinal length which varies from one area of the retina to another). The mean of these field counts was calculated for an entire retinal section (composed of 7 to 14 fields) and these means, calculated for the different treatment groups, were compared by a nonparametric Mann-Whitney test with significance at p<0.05.
Eight groups of 2 rats were used. Both eyes of each animal received identical treatment. Three routes of administration of glibenclamide were tested: intravitreal route (1 ng or 0.01 ng injected in each eye), oral route (10 mg/kg body weight) and subconjunctival route (1 ng glibenclamide injected in each eye).
The glibenclamide stock solution for the intravitreal and subconjunctival injections was obtained by diluting 4.5 mg glibenclamide in 300 μL of pure DMSO. This solution was then frozen. The glibenclamide solutions at different concentrations used for the intravitreal and subconjunctival injections were obtained by dilution in BSS® buffer (Alcon) immediately before use.
The glibenclamide solutions for oral administration (10 mg/kg) were obtained by dissolving 8 mg glibenclamide in […] DMSO and 1030 μL of water to give a 6 mg/ml glibenclamide solution, which was administered through a syringe.
Group 1: (n=2, 4 eyes), intravitreal injection of 6 μL of solution containing 45 nM NMDA and 1 ng glibenclamide.
Group 2: (n=2, 4 eyes), intravitreal injection of 6 μL of solution containing 45 nM NMDA and 0.01 ng glibenclamide.
Group 4: (n=2, 4 eyes), oral administration of glibenclamide 10 mg/kg body weight and simultaneous intravitreal injection of 6 μL of 45 nM NMDA. A 7% glucose solution was made available ad libitum to avoid possible hypoglycemia.
Group 6: (n=2, 4 eyes), subconjunctival injection of 50 μL of solution containing 1 ng glibenclamide and simultaneous intravitreal injection of 6 μL of 45 nM NMDA.
18 hours after NMDA and glibenclamide administration, rats were euthanized and the eyes were immediately dissected, fixed in 4% paraformaldehyde and 10% sucrose for 4 hours, then immersed overnight at 4° C. in 15% sucrose in phosphate buffer.
Eyes were then embedded in OCT and cryostat-sectioned (10 μm thick). Sections were labeled by the TUNEL method to detect apoptotic cell death.

retinal cells [2] = type: in vivo; conditions: vs BSS, P<0.0001, FIG. 10
Text: as §1
Eight-week-old male Wistar rats weighing 320-350 g were used. Rats were maintained in standard animal housing with a 12 hr day/12 hr night cycle at a temperature of 21° C.+1° C. and 55±5% humidity. […]
as §2, with “For each eye, four complete retinal sections taken from the same eye sectors were used for apoptotic cell counts.” left out, “p<0.05. […]” for “p<0.05.”

COc1ccc(Cl)cc1C(=O)NCCc1ccc(S(=O)(=O)NC(=O)NC2CCCCC2)cc1 [glibenclamide] was tested, and the “apoptotic cell count in retinas exposed to NMDA-induced degeneration” value (retinal cells [1]; intravitreal 0.01 ng co-injected with 45 nM NMDA) was “significant decrease”, the “organization of the retinal cell layers (DAPI labeling)” value (retinal cells [1]; intravitreal 0.01 ng co-injected with NMDA, FIG. 7C) was “perfectly conserved” and the “apoptotic cell count in retinas exposed to NMDA-induced degeneration” value (retinal cells [1]; intravitreal 1 ng co-injected with 45 nM NMDA) was “significant decrease”. For the same compound, the “organization of the retinal cell layers (DAPI labeling)” value (retinal cells [1]; intravitreal 1 ng co-injected with NMDA, FIG. 7B) was “perfectly conserved”, the “NMDA-induced retinal cell degeneration (apoptotic cells per field)” value (retinal cells [1]; oral 10 mg/kg, vs DMSO per os, P=0.012, FIG. 8) was “significantly reduced” and the “NMDA-induced retinal cell degeneration (apoptotic cells per field)” value (retinal cells [1]; subconjunctival 1 ng, vs DMSO SCJ, P=0.0002, FIG. 9) was “significantly reduced”. The “protection of retinal cells from NMDA-induced degeneration (apoptotic cells per field)” value (retinal cells [2]; intravitreal 100 ng in BSS 5 days before intravitreal NMDA) was “significantly protected” and the “protection of retinal cells from NMDA-induced degeneration (apoptotic cells per field)” value (retinal cells [2]; intravitreal 100 μg in BSS 5 days before intravitreal NMDA) was “significantly protected”.
